Source: the supplement of paper PMC10307832

Experiments:
Assay in all cases: relative viability (nuclei count vs DMSO), 5 days (fraction); higher = more cells survive
NCI-H1993 = tested on: NCI-H1993
Procedure, shortened: (§1)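 Dosing by pin tool came one day after lung cancer cell lines were seeded in 1536-well plates, using either one drug or a fixed anchor-drug dose plus five library-drug doses (not always all listed) in √10 steps. After 5 days, nuclei were counted on 4× images. Relative viability is treated-well nuclei count divided by vehicle-well nuclei count, and values are medians of duplicate plates.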

PC-3 [JPC-3] = tested on: PC-3 [JPC-3]
Procedure, shortened: as §1

NCI-H1975 = tested on: NCI-H1975
Procedure, shortened: as §1

HCC-15 = tested on: HCC-15
Procedure, shortened: as §1

LU99A = tested on: LU99A
Procedure, shortened: as §1

NCI-H838 = tested on: NCI-H838
Procedure, shortened: as §1

LC-2-ad = tested on: LC-2-ad
Procedure, shortened: as §1

HARA = tested on: HARA
Procedure, shortened: as §1

NCI-H1734 = tested on: NCI-H1734
Procedure, shortened: as §1

NCI-H1944 = tested on: NCI-H1944
Procedure, shortened: as §1

NCI-H1666 = tested on: NCI-H1666
Procedure, shortened: as §1

NCI-H2228 = tested on: NCI-H2228
Procedure, shortened: as §1

NCI-H1395 = tested on: NCI-H1395
Procedure, shortened: as §1

NCI-H3122 = tested on: NCI-H3122
Procedure, shortened: as §1

NCI-H661 = tested on: NCI-H661
Procedure, shortened: as §1

CAL-12T = tested on: CAL-12T
Procedure, shortened: as §1

H3255 = tested on: H3255
Procedure, shortened: as §1

NCI-H520 = tested on: NCI-H520
Procedure, shortened: as §1

COR-L 105 = tested on: COR-L 105
Procedure, shortened: as §1

PC-14 = tested on: PC-14
Procedure, shortened: as §1

NCI-H647 = tested on: NCI-H647
Procedure, shortened: as §1

SK-LU-1 = tested on: SK-LU-1
Procedure, shortened: as §1

For Cc1cnc(-c2cnc(NCCNc3ccc(C#N)cn3)nc2-c2ccc(Cl)cc2Cl)[nH]1 + CCNC(=O)c1noc(-c2cc(C(C)C)c(O)cc2O)c1-c1ccc(CN2CCOCC2)cc1 [Luminespib] (partner 0.01 µM), the relative viability (NCI-H1993; first compound 0.08 µM) was 0.934, the relative viability (NCI-H1993; first compound 0.253 µM) was 0.932 and the relative viability (NCI-H1993; first compound 0.8 µM) was 0.598. For the same compound, the relative viability (NCI-H1993; first compound 2.53 µM) was 1.27, the relative viability (PC-3 [JPC-3]; first compound 0.08 µM) was 0.795 and the relative viability (PC-3 [JPC-3]; first compound 0.253 µM) was 0.706. It also gave a relative viability (PC-3 [JPC-3]; first compound 0.8 µM) of 0.675, a relative viability (PC-3 [JPC-3]; first compound 2.53 µM) of 0.661 and a relative viability (NCI-H1975; first compound 0.08 µM) of 0.21. For the same compound, the relative viability (NCI-H1975; first compound 0.253 µM) was 0.252, the relative viability (NCI-H1975; first compound 0.8 µM) was 0.191 and the relative viability (NCI-H1975; first compound 2.53 µM) was 0.189. The relative viability (HCC-15; first compound 0.08 µM) was 0.303, the relative viability (HCC-15; first compound 0.253 µM) was 0.217 and the relative viability (HCC-15; first compound 0.8 µM) was 0.318. It also gave a relative viability (HCC-15; first compound 2.53 µM) of 0.398, a relative viability (LU99A; first compound 0.08 µM) of 0.243 and a relative viability (LU99A; first compound 0.253 µM) of 0.382. For the same compound, the relative viability (LU99A; first compound 0.8 µM) was 0.261, the relative viability (LU99A; first compound 2.53 µM) was 0.234 and the relative viability (NCI-H838; first compound 0.08 µM) was 0.326. It also gave a relative viability (NCI-H838; first compound 0.253 µM) of 0.287, a relative viability (NCI-H838; first compound 0.8 µM) of 0.333 and a relative viability (NCI-H838; first compound 2.53 µM) of 0.301. For the same compound, the relative viability (LC-2-ad; first compound 0.08 µM) was 0.956, the relative viability (LC-2-ad; first compound 0.253 µM) was 0.683 and the relative viability (LC-2-ad; first compound 2.53 µM) was 0.963. For the same compound, the relative viability (HARA; first compound 0.08 µM) was 0.896, the relative viability (HARA; first compound 0.253 µM) was 0.568 and the relative viability (HARA; first compound 0.8 µM) was 0.665. For the same compound, the relative viability (HARA; first compound 2.53 µM) was 0.709, the relative viability (NCI-H1734; first compound 0.08 µM) was 0.208 and the relative viability (NCI-H1734; first compound 0.253 µM) was 0.199. For the same compound, the relative viability (NCI-H1734; first compound 0.8 µM) was 0.144, the relative viability (NCI-H1734; first compound 2.53 µM) was 0.23 and the relative viability (NCI-H1944; first compound 0.08 µM) was 0.831. It also gave a relative viability (NCI-H1944; first compound 0.8 µM) of 0.861, a relative viability (NCI-H1944; first compound 2.53 µM) of 0.678 and a relative viability (NCI-H1666; first compound 0.08 µM) of 1.04. For the same compound, the relative viability (NCI-H1666; first compound 0.253 µM) was 1.04, the relative viability (NCI-H1666; first compound 0.8 µM) was 1.04 and the relative viability (NCI-H1666; first compound 2.53 µM) was 1.08. The relative viability (NCI-H2228; first compound 0.08 µM) was 0.131, the relative viability (NCI-H2228; first compound 0.253 µM) was 0.156 and the relative viability (NCI-H2228; first compound 0.8 µM) was 0.133. It also gave a relative viability (NCI-H2228; first compound 2.53 µM) of 0.159, a relative viability (NCI-H1395; first compound 0.08 µM) of 0.627 and a relative viability (NCI-H1395; first compound 0.253 µM) of 0.708. It also gave a relative viability (NCI-H1395; first compound 0.8 µM) of 0.65, a relative viability (NCI-H1395; first compound 2.53 µM) of 0.677 and a relative viability (NCI-H3122; first compound 0.08 µM) of 0.124. It also gave a relative viability (NCI-H3122; first compound 0.8 µM) of 0.0778, a relative viability (NCI-H3122; first compound 2.53 µM) of 0.0737 and a relative viability (NCI-H661; first compound 0.08 µM) of 0.889. The relative viability (NCI-H661; first compound 0.253 µM) was 0.881, the relative viability (NCI-H661; first compound 0.8 µM) was 0.904 and the relative viability (NCI-H661; first compound 2.53 µM) was 0.829. For the same compound, the relative viability (CAL-12T; first compound 0.08 µM) was 0.932, the relative viability (CAL-12T; first compound 0.253 µM) was 0.259 and the relative viability (CAL-12T; first compound 0.8 µM) was 0.387. The relative viability (CAL-12T; first compound 2.53 µM) was 0.242, the relative viability (H3255; first compound 0.08 µM) was 0.96 and the relative viability (H3255; first compound 0.253 µM) was 0.933. The relative viability (H3255; first compound 0.8 µM) was 0.977, the relative viability (H3255; first compound 2.53 µM) was 0.835 and the relative viability (NCI-H520; first compound 0.08 µM) was 0.257. For the same compound, the relative viability (NCI-H520; first compound 0.253 µM) was 0.203, the relative viability (NCI-H520; first compound 0.8 µM) was 0.227 and the relative viability (NCI-H520; first compound 2.53 µM) was 0.208. The relative viability (COR-L 105; first compound 0.08 µM) was 0.846, the relative viability (COR-L 105; first compound 0.253 µM) was 0.648 and the relative viability (COR-L 105; first compound 0.8 µM) was 0.696. It also gave a relative viability (COR-L 105; first compound 2.53 µM) of 0.654, a relative viability (PC-14; first compound 0.08 µM) of 0.151 and a relative viability (PC-14; first compound 0.253 µM) of 0.24. It also gave a relative viability (PC-14; first compound 0.8 µM) of 0.107, a relative viability (PC-14; first compound 2.53 µM) of 0.18 and a relative viability (NCI-H647; first compound 0.08 µM) of 0.144. It also gave a relative viability (NCI-H647; first compound 0.253 µM) of 0.131, a relative viability (NCI-H647; first compound 0.8 µM) of 0.135 and a relative viability (NCI-H647; first compound 2.53 µM) of 0.166. It also gave a relative viability (SK-LU-1; first compound 0.08 µM) of 0.196, a relative viability (SK-LU-1; first compound 0.253 µM) of 0.238 and a relative viability (SK-LU-1; first compound 0.8 µM) of 0.186. For the same compound, the relative viability (SK-LU-1; first compound 2.53 µM) was 0.213.
